Measurements taken from publication PMC4664883, “Selective targeting of nuclear receptor FXR by avermectin analogues with therapeutic effects on nonalcoholic fatty liver disease” (Scientific Reports, 2015).

Assays:
medaka eleutheroembryo = conditions: cited from earlier work
FXR N283L mutation = assay: Reporter assay with mutated FXR; format: cell-based; conditions: 1 μM, Fig. 8e
Description: R331M mutation was supposed to strengthen the hydrophobic interactions by displacing the corresponding residue of polar arginine to a hydrophobic methionine (Fig. 8b). Accordingly, this mutation increased the ability to be activated by avermectin ligands (Fig. 8e). For H447F mutation, the corresponding residue of histidine with a side chain of imidazole group was replaced by the nonpolar phenylalanine with a side chain of benzene ring (Fig. 8c). […] N283L mutation disrupts a key hydrogen bond between FXR and avermectin compounds (Fig. 8d).

mice = tested on: mice; parameters: method as in PMID 21632533; conditions: cited from earlier work
FXR A291W mutation = assay: Reporter assay with mutated FXR; format: cell-based; conditions: 1 μM, Fig. 8e
KK-Ay mice = assay: High-fat diet fed KK-Ay mice treated 14 days (liver histology, metabolic parameters, GTT, ITT); format: in vivo; conditions: KK-Ay mice, high-fat diet, i.p. once daily 14 days; avermectin analogues 1.3 mg/kg, GW4064 30 mg/kg
Procedure: To further confirm the lipid accumulation, we performed oil red O staining of the frozen liver sections (Fig. 2c).
10 weeks age KK-Ay mice and C57BL/6J, homozygous FXR deficient (FXR^–/–) mice were maintained under environmentally controlled conditions with free access to standard chow diet and water as described previously. Animal experiments were conducted in the barrier facility of the Laboratory Animal Center, Xiamen University, approved by the Institutional Animal Use and Care Committee of Xiamen University, China, and the methods were carried out in accordance with the approved guidelines. Mice were fed with high fat diet containing 60% fat, 20% protein and 20% carbohydrate (Research Diets, D12492, New Brunswick, USA), and the food intake were measured every second day. […] After 6 h fasting, mice were weighed and sacrificed. Livers were weighed and taken photos, and part of each liver was fixed in 4% paraformaldehyde. Liver histology characterization was analyzed by haematoxylin and eosin (H&E) staining with paraffin-embedded sections by standard procedures. Other tissues were collected and frozen in liquid nitrogen for use, and serums were collected to measure metabolite parameters.
Fresh liver tissues were embedded in optimum cutting temperature compound (OCT) and cryosectioned. The sections were fixed in 4% paraformaldehyde in PBS, and were stained with 0.3% oil red O according to standard procedures.
Mice treated with compounds for 10 days were fasted for 6 h with free access to water. For the glucose tolerance test (GTT), 1 g/kg of glucose was i.p. injected and blood glucose was measured with the Accu-Check Performa (Roche Applied Science, Mannheim, Germany) at 0, 30, 60, 90, 120,150 and 180 min. For the insulin tolerance test (ITT), 1 U/kg of recombinant human insulin (Novolin 30R; Novo Nordisk, Bagsvaerd, Denmark) was i.p. injected, and blood glucose was measured at 0, 30, 60, 120 and 150 min after insulin injection.
Serum glucose was analyzed using glucose oxidase method (Applygen, Beijing, China). Serum cholesterol and triglyceride were analyzed using Cholesterol Assay Kit and Triglyceride Assay Kit (Bioassay Systems, USA), respectively. Liver triglyceride was analyzed using Tissue triglyceride assay kit (Applygen, Beijing, China).

[1] = parameters: method as in PMID 10956205, PMID 25388536, PMID 19586769; conditions: in rat; cited from earlier work

## CC(C)c1onc(-c2c(Cl)cccc2Cl)c1COc1ccc(/C=C/c2cccc(C(=O)O)c2)c(Cl)c1 [GW4064]
Medaka eleutheroembryo
  hepatobiliary toxicity: hepatobiliary injury
FXR N283L mutation
  transcriptional activity of N283L mutated FXR: retained the ability to be activated
mice
  body weight and fat effect: weight gain and fat accumulation
FXR A291W mutation
  transcriptional activity of A291W mutated FXR: abolished the transcriptional activity
KK-Ay mice
  hepatic lipid / steatosis by H&E staining of liver sections: slightly reduced the hepatic lipid
  lipid accumulation by oil red O staining of liver sections: slightly reduced the lipid accumulation
  liver morphology (colour): a little fresh red
[1]
  t1/2: < 1 h
